Assays:
human Smo receptor = biological target: T1, human Smo receptor (Homo sapiens, UniProt Q99835); assay: Competition with bodipy-cyclopamine (BC) binding in HEK-hSmo cells
T1 construct: expressed in transfected cells
Description: Cells of the HEK293 line stably transfected with the human Smo receptor are used. The experiment was conducted according to the protocol described in Roudaut et al., Mol. Pharmacol. 79: 453-460, 2011.
At the end of the incubation, the cells are fixed and stained with DAPI, a fluorescent molecule with high affinity for DNA which makes it possible to visualize the nuclei in blue in fluorescence microscopy.

[1] = biological target: T2, human Smoothened receptor (Homo sapiens, UniProt Q99835); assay: Saturation of binding of 3H-(7d) to membranes of HEK-hSmo cells; settings: read-out: Kd of specific binding
T2 construct: expressed in transfected cells
Description: The binding test is carried out on membranes enriched with Smoothened receptor. Cells of the HEK-hSmo line were used for preparing these membranes. The cells are washed and recovered in iced PBS. After centrifugation at 100 g for 7 minutes at 4° C., the pellet is taken up in 10 times its volume of an iced buffer A (50 mM HEPES, pH 7.4, 1 mM EDTA) with addition of 10 μl of a cocktail of protease inhibitors (PEAK, Sigma) per ml of buffer, then it is homogenized using a Polytron grinding mill. After centrifugation at 500 g for 30 minutes at 4° C., which makes it possible to remove the nuclei from the cells, the supernatant is centrifuged again at 48 000 g for 45 min at 4° C. The pellet is taken up in 2 ml of buffer A with PEAK added, then the suspension is homogenized using a glass conical grinding mill and is passed through a 23 G needle. Finally, aliquots are placed in Eppendorf tubes and stored at −80° C. The concentration of total protein in the preparation is determined by Lowry's method using BSA for preparing the standard range. This concentration is 10.9 mg/ml.
The membranes are resuspended in a buffer (50 mM HEPES and 3 mM MgCl2) containing 0.2% of BSA. The tests of binding of ^3H-(7d) are carried out in polypropylene tubes. […] The radioactivity retained on the filter is measured in the presence of 3 ml of scintillating agent in a liquid scintillation counter. […]

T1 sequence (Q99835 28-787): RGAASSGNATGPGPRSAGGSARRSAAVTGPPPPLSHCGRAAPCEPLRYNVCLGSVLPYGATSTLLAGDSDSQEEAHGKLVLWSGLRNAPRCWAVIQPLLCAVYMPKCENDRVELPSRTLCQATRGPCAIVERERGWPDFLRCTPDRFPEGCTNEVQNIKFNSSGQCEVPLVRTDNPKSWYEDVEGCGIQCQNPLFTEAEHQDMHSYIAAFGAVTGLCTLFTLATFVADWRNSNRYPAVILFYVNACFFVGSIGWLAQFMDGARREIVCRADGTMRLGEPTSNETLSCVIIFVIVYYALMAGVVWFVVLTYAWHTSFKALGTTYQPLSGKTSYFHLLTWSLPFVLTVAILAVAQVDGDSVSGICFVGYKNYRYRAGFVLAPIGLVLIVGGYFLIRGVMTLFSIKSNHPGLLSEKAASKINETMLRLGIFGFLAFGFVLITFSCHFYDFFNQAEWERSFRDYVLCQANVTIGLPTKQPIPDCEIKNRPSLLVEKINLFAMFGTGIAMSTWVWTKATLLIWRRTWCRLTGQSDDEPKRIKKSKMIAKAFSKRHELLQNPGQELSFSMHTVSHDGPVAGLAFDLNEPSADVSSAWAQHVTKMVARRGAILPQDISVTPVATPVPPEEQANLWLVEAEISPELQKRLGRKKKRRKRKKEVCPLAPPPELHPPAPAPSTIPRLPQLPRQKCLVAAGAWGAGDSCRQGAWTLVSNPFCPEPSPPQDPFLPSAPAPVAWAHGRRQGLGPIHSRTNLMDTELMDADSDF
T2 sequence (Q99835 28-787): as above

COc1cc(C(=O)NC(=N)Nc2ccc(C)c(NC(=O)c3ccc(CCc4ccccc4)cc3)c2)cc(OC)c1OC.Cl [Compound 7d, 3,4,5-trimethoxy-N—(N-(4-methyl-3-(4-phenethylbenzamido)phenyl)carbamimidoyl)benzamide hydrochloride]
Block of the binding of BC to HEK-hSmo cells, in words (human Smo receptor; BC 5 nM, 2 hours): very similar and high
IC50 (human Smo receptor; bodipy-cyclopamine (5 nM), HEK-hSmo cells, read-out: IC50 ± SEM, BC binding (4)): 8 ± 1 nM
Kd [1]: 0.3 nM

Reference: patent US8981149B2, “Compounds modulating the hedgehog protein signaling pathway, marked forms thereof, and applications” (Centre National De La Recherche Scientifique, priority 2011, dated 2015)
